The values below come from paper PMC3531619 (Angewandte Chemie (International Ed. in English), 2012).

Where no end group is shown, it is not given here. [ ]: non-standard residue; d: D form. Bpa = N[C@@H](Cc1ccc(C(=O)c2ccccc2)cc1)C(=O)O

One data set has as its system PP1. Kind of data set: Streptavidin pull-down of PP1 with biotinylated peptides from cell lysates. The class given is binding, human. The settings on record: HEK293 and U2OS cell lysates, streptavidin-coated Sepharose beads, immunoblot.
The test system of a further data set is PP2A. Kind of data set: Streptavidin pull-down of PP2A with biotinylated peptides from cell lysates. Format: binding, human. Conditions: U2OS cell lysates, streptavidin beads, immunoblot.
The test system of a further data set is U2OS cells. Kind of data set: Cell viability assay. The class given is cell-based, human. The settings on record: conditions of the in-cell experiments.

Consider RRKRPKRKRKNARATAAEAAEII [PDP2m], for which, in the data set with PP1, the “Co-sedimentation of PP1 in pull-down” value is “co-precipitated neither PP1 nor PP2A”. Also, the “Co-precipitation of PP2A in pull-down” value in the data set with PP2A is listed as “co-precipitated neither PP1 nor PP2A”. In the case of RRKRPKRKRKNARATA[Bpa]EAAEII [PDP3m], the “Cytotoxicity under the experimental conditions” value in the data set with U2OS cells was “neither PDP3 nor PDP3m showed any cytotoxicity”.
